Results published in patent publication US20060100269A1, “Use of 10-aminoaliphatyl-dibenz[b,f]oxepines for the treatment of degenerative ocular disorders” (priority 2003, published 2006).

Tests used:
[1] = test system: retinal ganglion cells (RGCs); experiment: transient retinal ischemia by selective ligature of ophthalmic vessels, RGC rescue; type: in vivo; conditions: adult Sprague-Dawley rats; 60 minutes ischemia causing 30% RGC death seven days after ischemia; intraperitoneal injection, 0.005 mg/kg
Protocol: In particular, in adult Sprague-Dawley rats, transient retinal ischemia induced by selective ligature of ophthalmic vessels for 60 minutes, causes a 30% RGC death seven days after ischemia.

[2] = test system: retinal ganglion cells (RGCs); experiment: crush of the rat optic nerve, RGC loss and apoptotic nuclei; type: in vivo; conditions: 0.1 mg/kg subcutaneously, assessed 18 days after optic nerve crush

## C#CCN(C)CC1=Cc2ccccc2Oc2ccccc21.O=C(O)/C=C\C(=O)O [N-(dibenz[b,f]oxepin-10-ylmethyl)-N-methyl-N-prop-2-ynylamine hydrogen maleate]
[1]
  RGC rescue rate: 45%
[2]
  increase in apoptotic nuclei: significantly reduces
  loss of RGCs: significantly reduces
